PMC3070406 (The Pediatric infectious disease journal, 2011)

How the values were obtained:
matrix M2 protein = test system: matrix M2 protein; design: species or system influenza A (H3N2) virus
[1] = test system: NA of influenza A (H3N2) virus isolates; type: biochemical; conditions: read-out: Susceptibility to oseltamivir (mean IC50 ± SD)
[2] = test system: NA of influenza A (H1N1) virus isolate; type: biochemical; conditions: read-out: Susceptibility to oseltamivir (mean IC50 ± SD)

SMILES | Susceptibility to adamantanes (S31N mutation in M2 protein) (matrix M2 protein) | IC50 [1] | IC50 [2]
NC12CC3CC(CC(C3)C1)C2 [amantadine] | resistance |  | 
